Source: US20240182420A1, “MICROBIOCIDAL ISONICOTINIC AMIDE DERIVATIVES” (SYNGENTA CROP PROTECTION AG, priority 2021, published 2024)

Assays:
[1] = system: Botryotinia fuckeliana syn. Botrytis cinerea; experiment: Botryotinia fuckeliana syn. Botrytis cinerea (gray mould), liquid culture growth inhibition; type: cell-based; conditions: PDB nutrient broth, 24° C., 72 hrs, photometric, vs untreated control
Experimental: (§1) Conidia of the fungus from cryogenic storage were directly mixed into nutrient broth (PDB potato dextrose broth). A DMSO solution of the test compounds was placed into a microtiter plate (96-well format) and the nutrient broth containing the fungal spores was added to it. The test plates were incubated at 24° C. and the inhibition of growth was determined photometrically after 72 hrs.

Pyrenophora teres = Pyrenophora teres (net blotch of barley), barley leaf segments, preventive; type: in vivo; conditions: foliar, 96 h, assessed 4 dpi, vs untreated control
Experimental: (§2) Barley leaf segments are placed on agar in multiwell plates (24-well format) and sprayed with test solutions. After drying, the leaf disks are inoculated with a spore suspension of the fungus. After appropriate incubation, the activity of a compound is assessed 4 dpi (days after inoculation) as preventive fungicidal activity.

[2] = system: Monographella nivalis syn. Microdochium nivale, Fusarium nivale; experiment: Monographella nivalis syn. Microdochium nivale (snow mould, foot rot), liquid culture growth inhibition; type: cell-based; conditions: PDB nutrient broth, 24° C., 72 hrs, 620 nm, vs untreated control
Experimental: as §1, with “hrs at 620 nm.” for “hrs.”

[3] = system: Phaeosphaeria nodorum syn. Septoria nodorum; experiment: Phaeosphaeria nodorum syn. Septoria nodorum (glume blotch of wheat), wheat leaf segments, preventive; type: in vivo; conditions: Parastagonospora nodorum, foliar, 96 h, assessed 4 dpi, vs untreated control
Experimental: as §2, with “Wheat” for “Barley”, “incubation” for “incubation,”
The following compounds from Table T1 gave at least 80% control of Phaeosphaeria nodorum at 200 ppm when compared to untreated control under the same conditions, which sowed extensive disease development: • 1.1, 1.3, 1.7, 1.14, 1.39, 1.41, 1.86, 1.87, 1.92, 1.94, 1.95.

[4] = system: Botryotinia fuckeliana syn. Botrytis cinerea; experiment: Botryotinia fuckeliana syn. Botrytis cinerea (grey mold on tomato), tomato plants; type: in vivo; conditions: tomato plants cv. Roter Gnom, inoculated two days after application, leaf area covered by disease 5-6 days after application
Experimental: 4-week old tomato plants cv. Roter Gnom are treated sprayed in a spray chamber with the formulated test compound diluted in water. The test plants are inoculated by spraying them with a spore suspension two days after application. The inoculated test plants are incubated at 20° C. and 95% rh in a greenhouse and the percentage leaf area covered by disease is assessed when an appropriate level of disease appears on untreated check plants (5-6 days after application).

Alternaria solani = Alternaria solani (early blight of tomato), tomato leaf disks, preventive; type: in vivo; conditions: foliar, 96 h, assessed 4 dpi, vs untreated control
Experimental: Tomato leaf disks are placed on water agar in multiwell plates (24-well format) and sprayed with test solutions. After drying, the leaf disks are inoculated with a spore suspension of the fungus. After appropriate incubation the activity of a compound is assessed 4 dpi (days post inoculation) as preventive fungicidal activity.

[5] = system: Glomerella lagenarium syn Colletotrichum lagenarium; experiment: Glomerella lagenarium syn. Colletotrichum lagenarium (anthracnose), liquid culture growth inhibition; type: cell-based; conditions: Colletotrichum orbiculare, PDB nutrient broth, 24° C., 72 hrs, 620 nm, vs untreated control
Experimental: as §1, with “hrs at 620 nm.” for “hrs.”

Sclerotinia sclerotiorum = Sclerotinia sclerotiorum (cottony rot, white mold), liquid culture growth inhibition; type: cell-based; conditions: PDB nutrient broth, 24° C., 72 hrs, 620 nm, vs untreated control
Experimental: as §1, with “Mycelial fragments” for “Conidia”, “fungus prepared” for “fungus”, “a fresh liquid culture” for “cryogenic storage”, “hrs at 620 nm.” for “hrs.”

| SMILES | inhibition of growth at 20 ppm [1] [%] | pest or weed control at 200 ppm (Pyrenophora teres) [%] | inhibition of growth at 20 ppm [2] [%] | pest or weed control at 200 ppm [3] [%] | pest or weed control at 200 ppm [4] [%] | pest or weed control at 200 ppm (Alternaria solani) [%] | inhibition of growth at 20 ppm [5] [%] | inhibition of growth at 20 ppm (Sclerotinia sclerotiorum) [%] |
| --- | --- | --- | --- | --- | --- | --- | --- | --- |
| Cc1cccc(Oc2cnc(C)cc2C(=O)NCC(F)c2ccc(Cl)cc2Cl)c1 (centres unmarked) [Compound 1.1, N-[2-(2,4-dichlorophenyl)-2-fluoro-ethyl]-2-methyl-5-(3-methylphenoxy)pyridine-4-carboxamide] | ≥ 80 | ≥ 80 | ≥ 80 | ≥ 80 | ≥ 50 | ≥ 80 | ≥ 80 | ≥ 80 |
| Cc1cccc(Oc2cnc(Cl)cc2C(=O)NCC(F)c2ccc(Cl)cc2Cl)c1 (centres unmarked) [Compound 1.3, 2-chloro-N-[2-(2,4-dichlorophenyl)-2-fluoro-ethyl]-5-(3-methylphenoxy) pyridine-4-carboxamide] | ≥ 80 | ≥ 80 |  | ≥ 80 | ≥ 50 |  | ≥ 80 | ≥ 80 |
| Cc1cc(C(=O)NCC(F)c2ccc(Cl)cc2Cl)c(Oc2cccc(C3CC3)c2)cn1 (centres unmarked) [Compound 1.14, 5-(3-cyclopropyl-phenoxy)-N-[2-(2,4-dichlorophenyl)-2-fluoro-ethyl]-2-methyl-pyridine-4-carboxamide] | ≥ 80 | ≥ 80 | ≥ 80 | ≥ 80 | ≥ 50 | ≥ 80 | ≥ 80 | ≥ 80 |
| Cc1ccc(C(F)CNC(=O)c2cc(C)ncc2Oc2cccc(C3CC3)c2)c(C)c1 (centres unmarked) [Compound 1.39, 5-(3-cyclopropyl-phenoxy)-N-[2-(2,4-dimethylphenyl)-2-fluoro-ethyl]-2-methyl-pyridine-4-carboxamide] | ≥ 80 | ≥ 80 | ≥ 80 | ≥ 80 | ≥ 50 | ≥ 80 | ≥ 80 | ≥ 80 |
| Cc1cc(C(=O)NC[C@@H](F)c2ccc(Cl)cc2Cl)c(Oc2cccc(C3CC3)c2)cn1 [Compound 1.41, 5-(3-cyclopropyl-phenoxy)-N-[(2S)-2-(2,4-dichlorophenyl)-2-fluoro-ethyl]-2-methyl-pyridine-4-carboxamide] | ≥ 80 | ≥ 80 | ≥ 80 | ≥ 80 | ≥ 50 | ≥ 80 | ≥ 80 | ≥ 80 |
| C=C(C)COc1cncc(Oc2cccc(C3CC3)c2)c1C(=O)NCC(F)c1ccc(Cl)cc1Cl (centres unmarked) [Compound 1.85, 3-(3-cyclopropyl-phenoxy)-N-[2-(2,4-dichlorophenyl)-2-fluoro-ethyl]-5-(2-methylallyloxy) pyridine-4-carboxamide] | ≥ 80 | ≥ 80 | ≥ 80 |  | ≥ 50 |  | ≥ 80 | ≥ 80 |
| C#Cc1cncc(Oc2cccc(C3CC3)c2)c1C(=O)NCC(F)c1ccc(Cl)cc1Cl (centres unmarked) [Compound 1.87, 3-(3-cyclopropyl-phenoxy)-N-[2-(2,4-dichlorophenyl)-2-fluoro-ethyl]-5-ethynyl-pyridine-4-carboxamide] | ≥ 80 | ≥ 80 | ≥ 80 | ≥ 80 | ≥ 50 | ≥ 80 | ≥ 80 | ≥ 80 |
| C#CC(C)(C)Oc1cncc(Oc2cccc(C3CC3)c2)c1C(=O)NCCc1ccc(Cl)cc1Cl [Compound 1.88, 3-(3-cyclopropyl-phenoxy)-N-[2-(2,4-dichlorophenyl)ethyl]-5-(1,1-dimethylprop-2-ynoxy)pyridine-4-carboxamide] | ≥ 80 | ≥ 80 | ≥ 80 |  | ≥ 50 |  | ≥ 80 | ≥ 80 |
| Cc1cncc(Oc2cccc(C3CC3)c2)c1C(=O)NC[C@H](F)c1ccc(Cl)cc1Cl [Compound 1.94, 3-(3-cyclopropyl-phenoxy)-N-[(2R)-2-(2,4-dichlorophenyl)-2-fluoro-ethyl]-5-methyl-pyridine-4-carboxamide] | ≥ 80 | ≥ 80 | ≥ 80 | ≥ 80 |  | ≥ 80 | ≥ 80 | ≥ 80 |
